Source: patent US10022341B2, “Methods of preventing neurodegeneration of association cortex in a mammal” (YALE UNIVERSITY, priority 2014, dated 2018)
Entries after “also recorded” stand apart in the source; their conditions may differ.

Legend:
[1] = tested on: p-S214 tau in aged monkey dlPFC; assay: Immunoblot of p-S214 tau in dlPFC after chronic daily treatment; assay type: in vivo; details: 0.001-0.1 mg/kg daily for 6 mos, n=1, pilot study
Description: FIG. 18 is a set of immunoblots and a graph illustrating the finding that chronic daily treatment with the α2A-AR agonist, guanfacine, reduces abnormal phosphorylation of tau in the aged monkey dlPFC.
Heat-stable tau was prepared as detailed in Bussière et al., 2003, J Comp Neurol. 463:281. Small blocks of dlPFC were surgically removed and flash-frozen before perfusion of subjects. A piece was placed into ice-cold homogenization buffer (10 mM Tris pH 7.4, 140 mM NaCl, 2 mM EGTA, plus protease and phosphatase inhibitors; 400 μL per 100 mg tissue) and homogenized by sonication. A small fraction was reserved for protein quantification for gel loading. NaCl was added to 250 mM, followed by addition of β-mercaptoethanol (14.3 M, Sigma) to 5% total volume. Samples were vortexed and heated to 100° C. for 15 min, vortexed, then cooled on ice for 30 min. Lysates were cleared by centrifugation at 16,100×g for 10 min at 4° C., and the supernatant used for immunoblotting. Band intensities were normalized by total heat-stable protein, quantified by measurement of major band intensities on a Coomassie stained gel (FIG. 5C).
All samples were run on Invitrogen Novex 4-12% Tris-glycine gels using the Biorad Western blotting system. […] Bands were quantified using Odyssey Software, and statistics performed by Student's T-test, unless stated otherwise.

[2] = humans; cited from earlier work
aged monkeys (18-28 yrs) = assay: Working memory performance after chronic daily treatment; assay type: in vivo, monkey
[3] = tested on: phospho-COXIV-1 (p-S58) in aged monkey dlPFC; assay: Immunoblot of phospho-COXIV-1 (p-S58) in dlPFC after chronic daily treatment; assay type: in vivo; details: 0.001-0.1 mg/kg daily for 6 mos, n=1, pilot study
Description: FIG. 19 is a set of immunoblots and a bar graph illustrating that chronic daily treatment with the α2A-AR agonist, guanfacine, reduces abnormal phosphorylation of COXIV in the aged monkey dlPFC.
All samples were run on Invitrogen Novex 4-12% Tris-glycine gels using the Biorad Western blotting system. Lanes were transferred onto […] Nitrocellulose (Biorad) and incubated overnight in primary antibodies: anti PDE4A (Abcam, ab14607; 1:1000), anti-GAPDH (Advanced Immunochemical, mAb 6C5; 1:5000), anti-PDE4B (Pearson et al., 1985, Proc. Natl. Acad. Sci. USA 82:4531), anti-β-tubulin (T2200, Sigma; 1:5000), anti-PSD95 (EMD Millipore, mAb N68; 1:5000), anti-pSer214 (EMD Millipore, AB6972; 1:1000) for all experiments, except the primary culture experiment, where Abcam 4846 was used due to discontinuation of the previous antibody, anti-pThr231 (Pierce, OPA1-031556; 1:1000), anti-tau (clone 5E2, EMD Millipore, 05-348; 1:500-1:1000). Primary antibodies were labeled using the appropriate Licor IRDye 680 or 800 secondary antibody, and visualized using a Licor Odyssey Infra Red Scanner. Bands were quantified using Odyssey Software, and statistics performed by Student's T-test, unless stated otherwise.

[4] = tested on: pS214-tau in mouse primary cortical neurons; assay: pSer214 phosphorylation assay in cultured neurons (immunoblot); assay type: cell-based
Description: FIG. 15 is a series of immunoblots illustrating the effect of PDE4 inhibition on phosphorylation of tau at Serine 214. Mouse primary cortical neurons between 7-11 days in vitro were preincubated with 10 μM rolipram or vehicle for 10 min, before being subjected to treatment with varying nM concentrations of forskolin (as indicated). Following this treatment, cells were lysed in 1% SDS with protease and phosphatase inhibitors (Complete Mini, Roche and PhosStop, Roche), and heated to 70° C. to prevent further phosphatase activity. Samples were quantified by BCA assay, and analyzed by imunoblotting. Blots were labeled for pSer214-tau (Abcam, 4846), total tau (EMD Millipore, clone 5E2) and GAPDH (Advanced Immunochemical, mAb 6C5). Bands were quantified using Image J, and total tau signals were normalized by GAPDH. p-Tau signals were then normalized to total tau signals.
Primary cortical neurons were prepared from P1 C57Bl/6 mice. One day prior to neuron production, plates were coated overnight with Poly-D-Lysine solution (Sigma). […]
Assays were performed on primary cortical neurons between 7-11 days in vitro. […] Samples were quantified by BCA assay, and analyzed by immunoblotting. In this instance, band intensity was quantified using ImageJ, and significance assessed by 2 way ANOVA using Graph Pad Prism software.

Row | Structure (SMILES) | p-S214 tau expression in dlPFC compared to chronic vehicle [1] | safety of long-term treatment [2] | working memory / cognitive performance compared to baseline (aged monkeys (18-28 yrs); 0.001 or 0.01 mg/kg daily for 6 months, n=4 or 5) | working memory / cognitive performance compared to baseline (aged monkeys (18-28 yrs); highest dose 0.1 mg/kg daily for 6 months, 0.1 mg/kg) | phospho-COXIV-1 (p-S58) expression in dlPFC compared to chronic vehicle [3] | forskolin-induced increase in pS214-tau ([4]; 10 μM with forskolin, F(1,60)=8.882, p=0.0042) | pS214-tau level ([4]; PDE4 inhibition, FIG. 3G)
1 | NC(N)=NC(=O)Cc1c(Cl)cccc1Cl [guanfacine, N-(diaminomethylidene)-2-(2,6-dichlorophenyl)acetamide] | reduces the expression of p-tau; also recorded: dose-related reduction in phosphorylated tau at the pS214 site; also recorded: dose-related reduction in p-S214 expression | proven safe for long-term treatment | enhances cognitive performance; also recorded: significantly improved working memory performance | produced improvement in some monkeys but not in others; also recorded: highly variable and thus not significant | reduces the expression of p-tau and phospho-COXIV-1; also recorded: decreasing phospho-COXIV-1; also recorded: decreased phospho-COXIV-1 expression | – | –
2 | COc1ccc(C2CNC(=O)C2)cc1OC1CCCC1 (stereo not shown) [rolipram] | – | – | – | – | – | significantly increased | increased pS214-tau
